# Test results: ChEMBL document CHEMBL5214926, “Recent contribution of medicinally active 2-aminothiophenes: A privileged scaffold for drug discovery” (Eur J Med Chem, 2022)
# Key:
# [1] = Antiproliferative activity against human U-87 MG cells assessed as cell growth inhibition by MTT assay; type: functional, cell-based, U-87MG ATCC
# NCI-H460 = assay: Antiproliferative activity against human NCI-H460 cells assessed as cell growth inhibition by MTT assay
# MKN-45 = assay: Antiproliferative activity against human MKN-45 cells assessed as cell growth inhibition by MTT assay
# SMMC-7721 = assay: Antiproliferative activity against human SMMC-7721 cells assessed as cell growth inhibition by MTT assay
# A549 = assay: cells; settings: Homo sapiens
# Description: Antiproliferative activity against human A549 cells assessed as cell growth inhibition by MTT assay
# HT-29 = assay: cells; settings: Homo sapiens
# Description: Antiproliferative activity against human HT-29 cells assessed as cell growth inhibition by MTT assay
# Staphylococcus aureus [2] = assay: Antibacterial activity against Staphylococcus aureus NCIM 2010 assessed as bacterial growth inhibition incubated for 8 hrs by absorbance based assay; type: functional
# Bacillus subtilis [3] = assay: Antibacterial activity against Bacillus subtilis NCIM 2079 assessed as bacterial growth inhibition incubated for 8 hrs by absorbance based assay; type: functional
# Escherichia coli = assay: Antibacterial activity against Escherichia coli NCIM 2688 assessed as bacterial growth inhibition incubated for 8 hrs by absorbance based assay; type: functional
# Pseudomonas aeruginosa = assay: Antibacterial activity against Pseudomonas aeruginosa NCIM 2036 assessed as bacterial growth inhibition incubated for 8 hrs by absorbance based assay; type: functional
# [4] = tested on: Mycobacterium tuberculosis; assay: Antimycobacterial activity against Mycobacterium tuberculosis H37Ra incubated for 8 to 12 days by XTT reduction menadione assay; type: functional; settings: time 8-12 day
# Staphylococcus aureus [5] = assay: Antibacterial activity against Staphylococcus aureus NCIM 2010 assessed as reduction in bacterial growth incubated for 8 hrs by absorbance based assay; type: functional, organism-based; settings: NCIM 2010, 8 h
# Bacillus subtilis [6] = assay: Antibacterial activity against Bacillus subtilis NCIM 2079 assessed as reduction in bacterial growth incubated for 8 hrs by absorbance based assay; type: functional, organism-based; settings: NCIM 2079, 8 h
# NCI-H1299 = assay: Cytotoxicity against human NCI-H1299 cells assessed as cell growth inhibition incubated for 48 hrs by SRB assay; type: functional, cell-based; settings: NCI-H1299, 48 h
# HepG2 = assay: Cytotoxicity against human HepG2 cells assessed as cell growth inhibition incubated for 48 hrs by MTT assay; type: functional, cell-based; settings: Homo sapiens, HepG2, 48 h
# MCF7 = assay: Cytotoxicity against human MCF7 cells assessed as cell growth inhibition incubated for 48 hrs by MTT assay; type: functional, cell-based; settings: MCF7, 48 h
# [7] = Inhibition of CaCC (unknown origin) current potentiation; set-up: species or system Homo sapiens
# Leishmania amazonensis = assay: Anti-promastigote activity against Leishmania amazonensis (IFLA/BR/67/PH8) assessed as promastigote growth inhibition incubated for 72 hrs by microscopic analysis; type: functional, organism-based
# [8] = Leishmania amazonensis, IFLA/BR/67/PH8, 72 h
smiles,measurement,setting,value
CCOC(=O)c1c(N)sc(C(=O)Nc2ccc(Cl)cc2)c1-c1ccccc1,IC50,[1],0.39 µM
same,IC50,NCI-H460,0.38 µM
same,IC50,MKN-45,0.26 µM
same,IC50,SMMC-7721,0.42 µM
same,IC50,A549,0.23 µM
same,IC50,HT-29,0.19 µM
COC(=O)c1ccsc1NC(=O)N[C@@H](C(=O)N[C@@H]1C(=O)N2[C@@H]1SC(C)(C)[C@@H]2C(=O)O)c1ccc(O)cc1,MIC,Staphylococcus aureus [2],0.29 mg/L
same,MIC,Bacillus subtilis [3],0.32 mg/L
same,MIC,Escherichia coli,> 10 mg/L
same,MIC,Pseudomonas aeruginosa,> 10 mg/L
same,MIC,[4],> 50 mg/L
same,EC50,Staphylococcus aureus [5],0.15 µM
same,EC50,Bacillus subtilis [6],0.15 µM
N#Cc1c(NC(=O)CN/N=C/c2cccc([N+](=O)[O-])c2)sc2c1CCCC2,IC50,NCI-H1299,18.5 µM
N#CCC(=O)Nc1sc(C(=O)Nc2ccccc2)c(-c2ccccc2)c1C#N,IC50,[1],6.28 µM
same,IC50,NCI-H460,8.06 µM
same,IC50,MKN-45,9.14 µM
same,IC50,SMMC-7721,7.93 µM
same,IC50,A549,7.59 µM
same,IC50,HT-29,6.59 µM
COC(=O)c1ccsc1NC(=O)N[C@@H](C(=O)N[C@@H]1C(=O)N2C(C(=O)O)=C(C)CS[C@H]12)c1ccccc1,MIC,Staphylococcus aureus [2],0.75 mg/L
same,MIC,Bacillus subtilis [3],3.14 mg/L
same,MIC,Escherichia coli,> 10 mg/L
same,MIC,Pseudomonas aeruginosa,> 10 mg/L
same,MIC,[4],> 50 mg/L
same,EC50,Staphylococcus aureus [5],0.26 µM
same,EC50,Bacillus subtilis [6],0.21 µM
CC(=O)c1ccc(Nc2c(C(C)=O)sc(N)c2C#N)cc1,IC50,HepG2,88.5 µM
same,IC50,MCF7,91.5 µM
COC(=O)c1c(N)sc2c1CCC(C(C)(C)C)C2 (stereo not drawn),IC50,[7],4.6 µM
C=CCNC(=S)Nc1sc2c(c1C(=O)OC)CCC(C(C)(C)C)C2 (stereo not drawn),IC50,[7],49.7 µM
CO[C@H]1/C=C/O[C@@]2(C)Oc3c(C)c(O)c4c(O)c(c(/C=N/N5CCN(C)CC5)c(O)c4c3C2=O)NC(=O)/C(C)=C\C=C\[C@H](C)[C@H](O)[C@@H](C)[C@@H](O)[C@@H](C)[C@H](OC(C)=O)[C@@H]1C [RIFAMPIN],MIC,[4],0.042 mg/L
CC(=O)Nc1sc(C(C)=O)c(Nc2ccc(C(C)=O)cc2)c1C#N,IC50,HepG2,66.2 µM
same,IC50,MCF7,64.6 µM
CC1(C)S[C@@H]2[C@H](NC(=O)[C@H](N)c3ccccc3)C(=O)N2[C@H]1C(=O)O [AMPICILLIN],MIC,Staphylococcus aureus [2],0.28 mg/L
same,MIC,Bacillus subtilis [3],0.28 mg/L
same,MIC,Escherichia coli,0.88 mg/L
same,MIC,Pseudomonas aeruginosa,> 10 mg/L
same,EC50,Staphylococcus aureus [5],0.15 µM
same,EC50,Bacillus subtilis [6],0.15 µM
CCOC(=O)c1c(Nc2c3ccc(Cl)cc3nc3ccc(OC)cc23)sc2c1CCCC2,EC50,Leishmania amazonensis,26.6 µM
same,EC50,Leishmania amazonensis; [8],51.4 µM
COc1cccc2c1C(=O)c1c(O)c3c(c(O)c1C2=O)C[C@@](O)(C(=O)CO)C[C@@H]3O[C@H]1C[C@H](N)[C@H](O)[C@H](C)O1 [DOXORUBICIN],IC50,HepG2,4.17 µM
CC(=O)c1ccc(Nc2c(C(=O)/C=C/c3ccccc3)sc(N)c2C#N)cc1,IC50,HepG2,73.6 µM
same,IC50,MCF7,67.5 µM
COc1ccc(/C=N/NCC(=O)Nc2sc3c(c2C#N)CCCC3)cc1,IC50,NCI-H1299,18.5 µM
COC(=O)c1c(NC(=O)Cn2cc(CNC34CC5CC(CC(C5)C3)C4)nn2)sc2c1CCC(C)C2 (stereo not drawn),IC50,[7],5.4 µM
CCOC(=O)c1c(N)sc(C(=O)Nc2ccccc2)c1-c1ccccc1,IC50,[1],7.42 µM
same,IC50,NCI-H460,8.59 µM
same,IC50,MKN-45,8.09 µM
same,IC50,SMMC-7721,8.58 µM
same,IC50,A549,6.8 µM
same,IC50,HT-29,7.49 µM
COc1ccc2nc3cc(Cl)ccc3c(Nc3sc4c(c3C#N)CCCCC4)c2c1,EC50,Leishmania amazonensis; [8],32.3 µM
COC(=O)c1c(NC(=O)N[C@@H](C(=O)N[C@@H]2C(=O)N3[C@@H]2SC(C)(C)[C@@H]3C(=O)O)c2ccc(O)cc2)sc2c1CCCCCC2,MIC,Staphylococcus aureus [2],0.28 mg/L
same,MIC,Bacillus subtilis [3],2.57 mg/L
same,MIC,Escherichia coli,> 10 mg/L
same,MIC,Pseudomonas aeruginosa,> 10 mg/L
same,MIC,[4],> 50 mg/L
same,EC50,Staphylococcus aureus [5],0.16 µM
same,EC50,Bacillus subtilis [6],0.25 µM
CC(C)(C)C1CCc2c(sc(NC3=NCC(CBr)S3)c2C(=O)O)C1 (stereo not drawn),IC50,[7],24.8 µM
CCOC(=O)c1c(Nc2c3ccc(Cl)cc3nc3ccc(OC)cc23)sc2c1CCCCC2,EC50,Leishmania amazonensis; [8],26.6 µM
